According to ChEMBL document CHEMBL1201862, “PubChem BioAssay data set” (2004):
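Assay format: 96-well plates, 48-hour exposure. Here, GI50 denotes the concentration required for 50% inhibition of growth.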 The source made the active and inactive calls. No stated cut-off is given here; in the data, active = GI50 up to about 1.1 µM and inactive = higher.

Legend:
Test in all cases: NCI-60 cell line screen, 48 h
ACHN = system: ACHN
CAKI-1 = system: CAKI-1
HCT-15 = system: HCT-15
HT-29 = system: HT-29
IGROV-1 = system: IGROV-1
KM12 = system: KM12
MCF7 = system: MCF7
MDA-N = system: MDA-N
MOLT-4 = system: MOLT-4
Malme-3M = system: Malme-3M
NCI/ADR-RES = system: NCI/ADR-RES
OVCAR-3 = system: OVCAR-3
RXF 393 = system: RXF 393
SF-295 = system: SF-295
SF-539 = system: SF-539
SK-MEL-5 = system: SK-MEL-5
SNB-75 = system: SNB-75
TK-10 = system: TK-10
U-251 = system: U-251
UACC-257 = system: UACC-257

`C=CCOc1ccccc1/N=N/C(C#N)=N\Nc1ccccc1OCC=C` was tested, and the GI50 (ACHN) was > 100 µM (inactive), the GI50 (CAKI-1) was > 100 µM (inactive) and the GI50 (HCT-15) was greater than 100 µM. The GI50 (HT-29) was > 100 µM (inactive), the GI50 (IGROV-1) was > 100 µM (inactive) and the GI50 (KM12) was > 100 µM (inactive). For the same compound, the GI50 (MCF7) was > 100 µM (inactive), the GI50 (MDA-N) was 27.2 µM (inactive) and the GI50 (MOLT-4) was > 100 µM (inactive). For the same compound, the GI50 (Malme-3M) was > 100 µM (inactive), the GI50 (NCI/ADR-RES) was > 100 µM (inactive) and the GI50 (OVCAR-3) was > 100 µM (inactive). For the same compound, the GI50 (RXF 393) was > 100 µM (inactive), the GI50 (SF-295) was > 100 µM (inactive) and the GI50 (SF-539) was > 100 µM (inactive). For the same compound, the GI50 (SK-MEL-5) was > 100 µM (inactive), the GI50 (SNB-75) was > 100 µM (inactive) and the GI50 (TK-10) was > 100 µM (inactive). For the same compound, the GI50 (U-251) was > 100 µM (inactive) and the GI50 (UACC-257) was > 100 µM (inactive).
For `C/C(CC(O)(C(F)(F)Cl)C(F)(F)Cl)=N\Nc1ccccc1`, the GI50 (ACHN) was 27 µM (inactive), the GI50 (CAKI-1) was 22.2 µM (inactive) and the GI50 (HCT-15) was 32.1 µM. For the same compound, the GI50 (HT-29) was 42.9 µM (inactive), the GI50 (IGROV-1) was 36.3 µM (inactive) and the GI50 (KM12) was 29.1 µM (inactive). The GI50 (MCF7) was 23.2 µM (inactive), the GI50 (MDA-N) was 43.6 µM (inactive) and the GI50 (MOLT-4) was 23.4 µM (inactive). For the same compound, the GI50 (Malme-3M) was 32.4 µM (inactive), the GI50 (NCI/ADR-RES) was 24.8 µM (inactive) and the GI50 (OVCAR-3) was 19.1 µM (inactive). For the same compound, the GI50 (RXF 393) was 19.2 µM (inactive), the GI50 (SF-295) was 42.3 µM (inactive) and the GI50 (SF-539) was 32.3 µM (inactive). For the same compound, the GI50 (SK-MEL-5) was 19.1 µM (inactive), the GI50 (SNB-75) was 28.9 µM (inactive) and the GI50 (TK-10) was 38.4 µM (inactive). The GI50 (U-251) was 28.2 µM (inactive) and the GI50 (UACC-257) was 44.7 µM (inactive).
`CC(C)CC(=O)OC[n+]1ccc(-c2c(COC(=O)NC(C)C)c(COC(=O)NC(C)C)c3n2CCC3)cc1` was tested, and the GI50 (ACHN) was 38.3 µM (inactive), the GI50 (CAKI-1) was 45.2 µM (inactive) and the GI50 (HCT-15) was greater than 100 µM. The GI50 (HT-29) was > 100 µM (inactive), the GI50 (IGROV-1) was > 100 µM (inactive) and the GI50 (KM12) was > 100 µM (inactive). For the same compound, the GI50 (MCF7) was 76.4 µM (inactive), the GI50 (MDA-N) was > 100 µM (inactive) and the GI50 (MOLT-4) was 32.3 µM (inactive). For the same compound, the GI50 (Malme-3M) was > 100 µM (inactive), the GI50 (NCI/ADR-RES) was > 100 µM (inactive) and the GI50 (OVCAR-3) was > 100 µM (inactive). The GI50 (RXF 393) was > 100 µM (inactive), the GI50 (SF-295) was > 100 µM (inactive) and the GI50 (SF-539) was 27.6 µM (inactive). For the same compound, the GI50 (SK-MEL-5) was > 100 µM (inactive), the GI50 (SNB-75) was > 100 µM (inactive) and the GI50 (TK-10) was > 100 µM (inactive). For the same compound, the GI50 (U-251) was > 100 µM (inactive) and the GI50 (UACC-257) was > 100 µM (inactive).
With `COc1c(OC)c(O)c2c(=O)c(OC)c(-c3ccc4c(c3)OCO4)oc2c1O` the GI50 (ACHN) was > 100 µM (inactive), the GI50 (CAKI-1) was > 100 µM (inactive) and the GI50 (HCT-15) was greater than 100 µM. The GI50 (HT-29) was 36.1 µM (inactive), the GI50 (IGROV-1) was > 100 µM (inactive) and the GI50 (KM12) was > 100 µM (inactive). The GI50 (MCF7) was > 100 µM (inactive), the GI50 (MDA-N) was > 100 µM (inactive) and the GI50 (MOLT-4) was 40.1 µM (inactive). The GI50 (Malme-3M) was > 100 µM (inactive), the GI50 (NCI/ADR-RES) was > 100 µM (inactive) and the GI50 (OVCAR-3) was > 100 µM (inactive). For the same compound, the GI50 (RXF 393) was 91.4 µM (inactive), the GI50 (SF-295) was 77.4 µM (inactive) and the GI50 (SF-539) was > 100 µM (inactive). For the same compound, the GI50 (SK-MEL-5) was 38.2 µM (inactive), the GI50 (SNB-75) was > 100 µM (inactive) and the GI50 (TK-10) was > 100 µM (inactive). For the same compound, the GI50 (U-251) was > 100 µM (inactive) and the GI50 (UACC-257) was 67 µM (inactive).
In the case of `CC1CC2CCCC(=O)C2=C(O)O1` (stereo not given), the GI50 (ACHN) is reported as > 100 µM (inactive), the GI50 (CAKI-1) is reported as > 100 µM (inactive) and the GI50 (HCT-15) is reported as greater than 100 µM. For the same compound, the GI50 (HT-29) was > 100 µM (inactive), the GI50 (IGROV-1) was > 100 µM (inactive) and the GI50 (KM12) was > 100 µM (inactive). The GI50 (MCF7) was > 100 µM (inactive), the GI50 (MDA-N) was > 100 µM (inactive) and the GI50 (MOLT-4) was > 100 µM (inactive). For the same compound, the GI50 (Malme-3M) was > 100 µM (inactive), the GI50 (NCI/ADR-RES) was > 100 µM (inactive) and the GI50 (OVCAR-3) was > 100 µM (inactive). For the same compound, the GI50 (RXF 393) was > 100 µM (inactive), the GI50 (SF-295) was > 100 µM (inactive) and the GI50 (SF-539) was > 100 µM (inactive). The GI50 (SK-MEL-5) was > 100 µM (inactive), the GI50 (SNB-75) was > 100 µM (inactive) and the GI50 (TK-10) was > 100 µM (inactive). For the same compound, the GI50 (U-251) was > 100 µM (inactive) and the GI50 (UACC-257) was > 100 µM (inactive).
